Molecules are shown by their SMILES. pIC50: −log10 of the molar value. ≈ marks a conversion by molar mass, not a printed value.

In general, pIC50 refers to the negative decadic logarithm of the IC50, by convention in mol/L. High values mean a small IC50, low ones a large IC50. Broadly, the viability is a read-out of living cells in per cent, often relative to untreated cells. One may read the MIC50 as the lowest concentration that inhibits either 50% of growth or 50% of the strains tested, depending on the study. As a reminder, the MIC90 is an inhibitory concentration at the 90% level, which refers to growth in some studies and to a panel of isolates in others. A low value points to greater potency.

Experiment [1] concerns A549 human lung cancer cell line. In words: Inhibition of A549 cell proliferation (cell count). Type of experiment: cell-based. The conditions noted are these: 2 μM, until 72 hours. On the procedure:
The inhibition of a A549 human lung cancer cell line proliferation by the calix[4]arene of the formula (2) was determined by exposure of said A549 human lung cancer cell line to a concentration of 2 μM of the calix[4]arene of the formula (2) until 72 hours. The absolute number of cells were counted in the treated and untreated conditions before treatment (N0) and after 72 hours (Nt).
The FIG. 1 is a graph showing: • the profile of the proliferation index Nt/N0 of the A549 cells after exposure with the calix[4]arene of the formula (2) with respect to the time (i.e. the curve entitled “calix[4]arene (2)”), • the profile of the proliferation index Nt/N0 of the A549 cells without any exposure with the calix[4]arene of the formula (2) with respect to the time (i.e. the curve entitled “untreated”).
“Nt” is number of cells at time “t” and “No” is number of cells before treatment.

Experiment [2] deals with Non-malignant MRC5-SVII cells. In words: MTS cytotoxicity assay on MRC5-SVII. The class given is cell-based. The conditions noted are these: 72 hours of treatment. On the procedure:
Cells were grown in Minimal Essential Medium—Non Essential Amino Acids (MEM NEAA) culture medium from Gibco™, supplemented with sodium pyruvate ([…]), and fetal calf serum (FCS, 10%) and treated with a broad range of concentrations of the 2nd comparative example of the formula (XI).
In general terms: Tetrazolium assays rely on reduction of a dye to a coloured formazan, in cell work by metabolically active cells.

The subject of experiment [3] is A549 human lung cancer cells. In words: MTS cytotoxicity assay, combination with CuCl2, A549. The conditions noted are these: Homo sapiens, A549, 72 h, read-out: percentage of cell viability.
In a further experiment the test system is Staphylococcus aureus. In words: Minimal inhibitory concentration, bacterial growth in 96 well plate. Type of experiment: cell-based. The conditions noted are these: SA, with 100 μM CuSO4. On the procedure: (§1) The efficiency of a compound of interest on a bacterial strain is evaluated by measuring its minimal inhibitory concentration (hereafter abbreviated “MIC”). MICs are measured by following the bacterial growth in a 96 wells plate exposed to a range of concentrations of the compound of interest.
(§2) A small amount of the frozen bacteria (stored at −80° C. in glycerol) was mixed in 25 mL of Lysogeny broth (i.e. a nutritionally rich medium used for the growth of bacteria which comprises 10 g of tryptone, 5 g of yeast extract, 10 g of NaCl, and 1 L of distilled water; with the pH adjusted to 7.0 with 1 N NaOH; and autoclaved for 25 min at 120° C.) in a falcon tube and then placed in an incubation chamber at 180 rpm and 37° C. After 16 to 24 hours, 25 mL of Lysogeny broth was added to the growth media and placed back in the incubation chamber for two hours. The absorption of the resulting solution was measured at 600 nm (hereafter abbreviated “OD600”) using Lysogeny broth as blank and then the solution was diluted to 0.1±0.01.
(§3) 96 Well plates were filled with 20 μL of 1 mM CuSO4 solution, then 160 μL of growth media was added. Finally, 20 μL of DMSO solutions containing a range of concentrations of the tested calix[4]arene of the formula (2) was added. […] For each condition three wells were used. The top and bottom rows were used as control, the top row only contained Lysogeny broth and the bottom one contained the growth media, DMSO and CuSO4. The plates were placed in the incubator for 16 to 24 hours. The absorbance of each well was measured at 600 nm with a multiplate reader (Fluostar from Optima).
(§4) The ratio between the average absorption value of three wells (OD) with the same conditions minus the average of the 12 negative controls (OD(negative)) and the average of the 12 positive control (OD(positive)) minus the negative control yielded the growth value which was subtracted from one and multiplied by a hundred to give the inhibition percentage (Equation 1).
(§5) The MIC50 or MIC90 is defined by the lowest concentration for which the inhibition value is at/over 50 or 90%. For a given experimental conditions three rows are used in a plate. The whole process was also repeated three times to obtain triplicates. MIC values were the determined by the average values obtained.

Experiment [4] has as its system methicillin resistant Staphylococcus aureus. The experiment is described as above. The class given is cell-based. The conditions noted are these: MRSA, with 100 μM CuSO4. On the procedure: as §1, §2, §3, §4, §5
In experiment [5] the test system is vancomycin resistant enterococcus. Described as above. The class given is cell-based. The conditions noted are these: VRE, with 100 μM CuSO4. On the procedure: as §1, §2, §3, §4, §5
The test system of another experiment is Escherichia coli. The description is as above. Type of experiment: cell-based. The conditions noted are these: E. coli, with 100 μM CuSO4. On the procedure: as §1, §2, §3, §4, §5
For experiment [6], the system named is H322 lung carcinoma cell line. In words: Inhibition of H322 cell proliferation (cell count). The class given is cell-based. The conditions noted are these: 3 μM, until 72 hours. On the procedure: The inhibition of a H322 lung carcinoma cell line proliferation by the calix[4]arene of the formula (2) was determined by exposure of said H322 lung carcinoma cell line to a concentration of 3 μM of the calix[4]arene of the formula (2) until 72 hours. The absolute number of cells were counted in the treated and untreated conditions before treatment (N0) and after 72 hours (Nt).
The FIG. 3 is a graph showing: • the profile of the proliferation index Nt/N0 of the H322 cells after exposure with the calix[4]arene of the formula (2) with respect to the time (i.e. the curve entitled “calix[4]arene (2)”), • the profile of the proliferation index Nt/N0 of the H322 cells without any exposure with the calix[4]arene of the formula (2) with respect to the time (i.e. the curve entitled “untreated”).

Experiment [7] concerns Candida albicans yeast cells. In words: Minimal inhibitory concentration, yeast growth in 96 well plate. The conditions noted are these: in presence of 100 μM CuSO4, read-out: minimal inhibitory concentrations values. The class given is cell-based. On the procedure:
as §1, §3
Additionally, the same protocol was repeated with Candida albican yeast cells. Instead of Lysogeny broth, Yeast Extract-Peptone-Dextrose (Bacteriological peptone, 20 g/L; Glucose, 20 g/L; Yeast extract, 10 g/L) was used as growing medium. […]

Experiment [8] concerns PC9 human lung cancer cells. In words: MTS cytotoxicity assay on PC9. Type of experiment: cell-based. The conditions noted are these: PC9, 72 hours of treatment.
Description: PC9 human lung cancer cells were seeded in 96-well plates together with the calix[4]arene of the formula (2). Cells were grown in RPMI-1640 supplemented with GlutaMAX™ (Gibco™) and fetal calf serum (FCS, 10%) and treated with a broad range of concentrations of the calix[4]arene of the formula (2). After 72 hours of treatment, the cytotoxicity was measured by means of the IC50 value, using the kit “CellTiter 96R AQuous One Solution Cell Proliferation Assay (MTS)” from Promega™. Following 30 minutes of incubation with the MTS reagent, the endpoint measurements were done in triplicate at 485 nm, using a fluorescence plate reader.
PC9 human lung cancer cells were seeded in 96-well plates together with the 2nd comparative example of the formula (XI). Cells were grown in RPMI-1640 supplemented with GlutaMAX™ (Gibco™) and fetal calf serum (FCS, 10%) and treated with a broad range of concentrations of the compound of the 2nd comparative example of the formula (XI). After 72 hours of treatment, the cytotoxicity was measured by means of the IC50 value, using the kit “CellTiter 96R AQuous One Solution Cell Proliferation Assay (MTS)” from Promega™. Following 30 minutes of incubation with the MTS reagent, the endpoint measurements were done in triplicate at 485 nm, using a fluorescence plate reader. […]
In experiment [9] the test system is A549 human lung cancer cells. In words: MTS cytotoxicity assay on A549. The conditions noted are these: A549, 72 hours of treatment. The class given is cell-based.
Description: A549 human lung cancer cells were seeded in 96-well plates together with the calix[4]arene of the formula (2). Cells were grown in RPMI-1640 supplemented with GlutaMAX™ (Gibco™) and fetal calf serum (FCS, 10%) and treated with a broad range of concentrations of the calix[4]arene of the formula (2). After 72 hours of treatment, the cytotoxicity was measured by means of the IC50 value, using the kit “CellTiter 96R AQuous One Solution Cell Proliferation Assay (MTS)” from Promega™. Following 30 minutes of incubation with the MTS reagent, the endpoint measurements were done in triplicate at 485 nm, using a fluorescence plate reader.
A549 human lung cancer cells were seeded in 96-well plates together with the compound of the 2nd comparative example of the formula (XI). Cells were grown in RPMI-1640 supplemented with GlutaMAX™ (Gibco™) and fetal calf serum (FCS, 10%) and treated with a broad range of concentrations of the 2nd comparative example of the formula (XI). After 72 hours of treatment, the cytotoxicity was measured by means of the IC50 value, using the kit “CellTiter 96R AQuous One Solution Cell Proliferation Assay (MTS)” from Promega™. Following 30 minutes of incubation with the MTS reagent, the endpoint measurements were done in triplicate at 485 nm, using a fluorescence plate reader. […]
Experiment [10] concerns H322 lung carcinoma cells. In words: MTS cytotoxicity assay on H322. The conditions noted are these: NCI-H322; H322, 72 hours of treatment. Type of experiment: cell-based.
Description: H322 lung carcinoma cells were seeded in 96-well plates together with the calix[4]arene of the formula (2). Cells were grown in RPMI-1640 supplemented with GlutaMAX™ (Gibco™) and fetal calf serum (FCS, 10%) and treated with a broad range of concentrations of the calix[4]arene of the formula (2). After 72 hours of treatment, the cytotoxicity was measured by means of the IC50 value, using the kit “CellTiter 96R AQuous One Solution Cell Proliferation Assay (MTS)” from Promega™. Following 30 minutes of incubation with the MTS reagent, the endpoint measurements were done in triplicate at 485 nm, using a fluorescence plate reader.
H322 lung carcinoma cells were seeded in 96-well plates together with the compound of the 2nd comparative example of the formula (XI). Cells were grown in RPMI-1640 supplemented with GlutaMAX™ (Gibco™) and fetal calf serum (FCS, 10%) and treated with a broad range of concentrations of the 2nd comparative example of the formula (XI). After 72 hours of treatment, the cytotoxicity was measured by means of the IC50 value, using the kit “CellTiter 96R AQuous One Solution Cell Proliferation Assay (MTS)” from Promega™. Following 30 minutes of incubation with the MTS reagent, the endpoint measurements were done in triplicate at 485 nm, using a fluorescence plate reader.
H322 lung carcinoma cells were seeded in 96-well plates together with the 1st comparative example of the formula (X). Cells were grown in RPMI-1640 supplemented with GlutaMAX™ (Gibco™) and fetal calf serum (FCS, 10%) and treated with a broad range of concentrations of the compound of the formula (X). After 72 hours of treatment, the cytotoxicity was measured by means of the IC50 value, using the kit “CellTiter 96R AQuous One Solution Cell Proliferation Assay (MTS)” from Promega™. Following 30 minutes of incubation with the MTS reagent, the endpoint measurements were done in triplicate at 485 nm, using a fluorescence plate reader.
H322 lung carcinoma cells were seeded in 96-well plates together with the tested calix[4]arenes. Cells were grown in RPMI-1640 supplemented with GlutaMAX™ (Gibco™) and fetal calf serum (FCS, 10%) and treated with a broad range of concentrations of the tested calix[4]arenes. After 72 hours of treatment, the cytotoxicity was measured by means of the IC50 value, using the kit “CellTiter 96R AQuous One Solution Cell Proliferation Assay (MTS)” from Promega™. Following 30 minutes of incubation with the MTS reagent, the endpoint measurements were done in triplicate at 485 nm, using a fluorescence plate reader.

Take `CCCOc1c2cccc1Cc1cccc(c1OCc1nccn1C)Cc1cccc(c1OCCC)Cc1cccc(c1OCc1nccn1C)C2` [(2)]: in [1], the “proliferation index Nt/N0 (FIG. 1)” value is on record as “clearly inhibits the proliferation”. Also, the negative-log IC50 (pIC50) in [2] is 5.99; in experiment [8], 5.69; in experiment [9], 5.81; in experiment [10] it was 5.74. Moreover, the viability at 0.1 µM in experiment [3] amounted to 102%. The viability at 0.5 µM in experiment [3] turned out to be 96.4%. Moreover, the viability at 1 µM in [3] amounted to 79.9%. Besides, in experiment [3], the viability at 1.5 µM stood at 52.2%. The MIC50 (with Staphylococcus aureus; in experiment [4]; in experiment [5]; in the experiment on Escherichia coli) was 0.8 µM (≈ 0.558 µg/mL) throughout. Moreover, the MIC90 against Staphylococcus aureus turned out to be 1.6 µM (≈ 1.12 µg/mL); in [4], 0.8 µM (≈ 0.558 µg/mL); in experiment [5], 1.6 µM (≈ 1.12 µg/mL); in the experiment on Escherichia coli it was 1.6 µM (≈ 1.12 µg/mL). Also, the “proliferation index Nt/N0 (FIG. 3)” value in [6] is “clearly inhibits the proliferation”. Further, in experiment [7], the MIC came to 0.8 µM.

Source of the values: patent US20260015339A1, “CALIX[4]ARENES WITH HIGH ANTICANCER ACTIVITY” (UNIVERSITE GRENOBLE ALPES, priority 2023, published 2026).
